Entries after “also recorded” stand apart in the source; their conditions may differ.
System: mouse colorectal cancer cell line (MC38)
Assay: Size of subcutaneous MC38 tumor mass in mice (Experimental Example 11)
Format: in vivo, mice (C57BL6)
Details: PAI-1 inhibitor 10 mg/kg orally daily 14 days, anti-PD1 antibody 15 μg i.p. every 3 days, 3 times, 14 and 21 days
Text: Mice (C57BL6) were divided into 1) an untreated group (vehicle) (n=15), 2) a single-administration group of anti-PD1 antibody (anti-PD-1 Ab), 3) a single-administration group of PAI-1 inhibitor (PAI-1 inhibitor), and 4) a combination group of anti-PD1 antibody and PAI-1 inhibitor (anti-PD-1 Ab+PAI-1 inhibitor) (n=18 for 2) to 4)). Then, 5×10^5 cells of the mouse colorectal cancer cell line (MC38) were transplanted subcutaneously into each mouse. One week after transplantation, engraftment of more than 5 mm of a tumor mass in the major axis was confirmed. Subsequently, the PAI-1 inhibitor (10 mg/kg) was orally administered once daily to groups 3) and 4) above for a total of 14 consecutive days. For groups 2) and 4), 15 μg of anti-PD1 antibody was intraperitoneally administered every 3 days (3 times in total) from the same day as the administration day of the PAI-1 inhibitor. For the untreated group, physiological saline was orally administered. The size of the tumor mass was measured 2 weeks (14 days) and 3 weeks (21 days) after the transplantation (0 days).

O=C(Nc1ccc(Cl)cc1C(=O)[O-])c1cccc(-c2cccc3cccnc23)c1.[Na+] [Example 68, 5-chloro-2-(((3-(quinolin-8-yl)phenyl)carbonyl)amino)sodium benzoate]
size of the tumor mass: significantly regressed; also recorded: tumor regression
